Results as given in PubChem BioAssay AID1259411 (Chemical Carcinogenesis Research Information System (CCRIS), 2018).
Calls of active or inactive are those of the source. The rule behind the calls is not given here.

Tested on: rodent carcinogenicity bioassays, tumor incidence
Assay: CCRIS carcinogenicity studies
Outline: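 NCI-built, expert-reviewed records of carcinogenicity and related test outcomes (mutagenicity, tumor promotion/inhibition) compiled from published and report sources, historical span 1985-2011, not updated.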

Structure (SMILES): CCCCN(CCCCO)N=O
- carcinogen call (Species: MOUSE, Strain/Sex: B6C3F1/MALE, Route: ORAL, Dose: 0, 0.05% IN DRINKING WATER FOR 12 WK (STUDY DURATION: 20 WK), Tumor Site: Type of Lesion: BLADDER: SQUAMOUS CELL CARCINOMA): active; positive
- carcinogen call (Species: MOUSE, Strain/Sex: B6D2F1/FEMALE, Route: ORAL, Dose: 0, 523 MG/L IN DRINKING WATER FOR 13 WK (STUDY DURATION: 28 WK), Tumor Site: Type of Lesion: URINARY BLADDER: TUMOR): active; positive
- carcinogen call (Species: MOUSE, Strain/Sex: B6D2F1/MALE, Route: ORAL, Dose: 0, 0.05% IN DRINKING WATER FOR 26 WK (STUDY DURATION: 26 WK), Tumor Site: Type of Lesion: URINARY BLADDER: TRANSITIONAL CELL CARCINOMA): active; positive
- carcinogen call (Species: MOUSE, Strain/Sex: B6D2F1/MALE, Route: ORAL, Dose: 0, 5 MG TWICE/WK BY GAVAGE FOR 10 WK (STUDY DURATION: 30 WK), Tumor Site: Type of Lesion: URINARY BLADDER: TRANSITIONAL CELL CARCINOMA): active; positive
- carcinogen call (Species: MOUSE, Strain/Sex: B6D2F1/MALE, Route: ORAL, Dose: 0, 523 MG/L IN DRINKING WATER FOR 13 WK (STUDY DURATION: 28 WK), Tumor Site: Type of Lesion: URINARY BLADDER: TUMOR): active; positive
- carcinogen call (Species: MOUSE, Strain/Sex: DS/SHI/MALE, Route: ORAL, Dose: 0, 0.05% IN DRINKING WATER FOR 12 WK (STUDY DURATION: 20 WK), Tumor Site: Type of Lesion: BLADDER: TRANSITIONAL CELL CARCINOMA): active; positive
- carcinogen call (Species: MOUSE, Strain/Sex: NON/SHI/MALE, Route: ORAL, Dose: 0, 0.05% IN DRINKING WATER FOR 4 WK (STUDY DURATION: 36 WK), Tumor Site: Type of Lesion: KIDNEY: TRANSITIONAL CELL CARCINOMA PAPILLOMA, BLADDER: TRANSITIONAL CELL CARCINOMA): active; positive
- carcinogen call (Species: MOUSE, Strain/Sex: NON/SHI/MALE, Route: ORAL, Dose: 0, 0.05% IN DRINKING WATER FOR 12 WK (STUDY DURATION: 20 WK), Tumor Site: Type of Lesion: KIDNEY: TRANSITIONAL CELL CARCINOMA, SQUAMOUS CELL CARCINOMA, BLADDER: TRANSITIONAL CELL CARCINOMA): active; positive
- carcinogen call (Species: Mouse, Strain/Sex: Nrf2-/-, p53+/-, Nrf2-/-::p53+/-, and wild type, Route: Oral, Dose: 0.05% in drinking water for 8 wk, study duration 8 wk): urinary bladder: carcinoma, 63.0% in nrf2-/- mice, 75.8% in p53+/- mice, 89.6% i
- carcinogen call (Species: RAT, Strain/Sex: ACI/MALE, Route: ORAL, Dose: 0, 0.05% IN DRINKING WATER FOR 4-24 WK, Tumor Site: Type of Lesion: URINARY BLADDER: PAPILLOMA, TRANSITIONAL CELL CARCINOMA, SQUAMOUS CELL CARCINOMA): active; positive
- carcinogen call (Species: RAT, Strain/Sex: F344/MALE, Route: ORAL, Dose: 0, 0.05% IN DRINKING WATER FOR 10 WK (STUDY DURATION: 20 WK), Tumor Site: Type of Lesion: URINARY BLADDER: TRANSITIONAL CELL CARCINOMA): active; positive
- carcinogen call (Species: RAT, Strain/Sex: F344/MALE, Route: ORAL, Dose: 0, 1, 5, 10, 50 PPM IN DRINKING WATER FOR 112 WK (STUDY DURATION: 112 WK), Dose: 0, 1, 5, 10, 50 PPM IN DRINKING WATER FOR 112 WK (STUDY DURATION: 112 WK), Tumor Site: Type of Lesion: BLADDER: CARCINOMA, PAPILLOMA): active; positive

Structure (SMILES): C[C@@]12CCC[C@H]1[C@@H]1CCc3cc(O)ccc3[C@H]1CC2
- carcinogen call (Species: HAMSTER, Strain/Sex: SYRIAN/MALE, Route: SUBCUTANEOUS IMPLANT, Dose: 0, 20 MG IN PELLETS IMPLANTED EVERY 2.5 MO FOR 9 MO (STUDY DURATION: 9 MO)): inactive; negative

Structure (SMILES): C[C@@H]1O[C@@H](OC[C@H]2O[C@@H](Oc3cc4c(O)cc(O)cc4[o+]c3-c3ccc(O)c(O)c3)[C@H](O)[C@@H](O)[C@@H]2O)[C@H](O)[C@H](O)[C@H]1O
- carcinogen call (Species: RAT, Strain/Sex: WISTAR/FEMALE, Route: ORAL, Dose: 0, 1.7, 4.1 G/KG/D IN DIET FOR 2 YR (STUDY DURATION: 2 YR), Dose: 0, 1.7, 4.1 G/KG/D IN DIET FOR 2 YR (STUDY DURATION: 2 YR)): inactive; negative
- carcinogen call (Species: RAT, Strain/Sex: WISTAR/MALE, Route: ORAL, Dose: 0, 1.5, 3.7 G/KG/D DIET FOR 2 YR (STUDY DURATION: 2 YR), Dose: 0, 1.5, 3.7 G/KG/D DIET FOR 2 YR (STUDY DURATION: 2 YR)): inactive; negative

Structure (SMILES): O=[N+]([O-])c1ccc(Oc2ccc(Cl)cc2Cl)cc1
- carcinogen call (Species: MOUSE, Strain/Sex: B6C3F1/FEMALE, Route: ORAL, Dose: 0, 2348, 4696 PPM IN DIET, TWA, Dose: 0, 2348, 4696 PPM IN DIET, TWA, Tumor Site: Type of Lesion: LIVER: HEPATOCELLULAR CARCINOMA OR NEOPLASTIC NODULE): active; positive
- carcinogen call (Species: MOUSE, Strain/Sex: B6C3F1/FEMALE, Route: ORAL, Dose: 0, 3000, 6000 PPM IN DIET, Dose: 0, 3000, 6000 PPM IN DIET, Tumor Site: Type of Lesion: LIVER: HEPATOCELLULAR ADENOMA OR CARCINOMA): active; positive
- carcinogen call (Species: MOUSE, Strain/Sex: B6C3F1/MALE, Route: ORAL, Dose: 0, 2348, 4696 PPM IN DIET, TWA, Dose: 0, 2348, 4696 PPM IN DIET, TWA, Tumor Site: Type of Lesion: LIVER: HEPATOCELLULAR CARCINOMA): active; positive
- carcinogen call (Species: MOUSE, Strain/Sex: B6C3F1/MALE, Route: ORAL, Dose: 0, 3000, 6000 PPM IN DIET, Dose: 0, 3000, 6000 PPM IN DIET, Tumor Site: Type of Lesion: LIVER: HEPATOCELLULAR ADENOMA OR CARCINOMA): active; positive
- carcinogen call (Species: RAT, Strain/Sex: F344/FEMALE, Route: ORAL, Dose: 0, 3000, 6000 PPM IN DIET, Dose: 0, 3000, 6000 PPM IN DIET): inactive; negative
- carcinogen call (Species: RAT, Strain/Sex: F344/MALE, Route: ORAL, Dose: 0, 3000, 6000 PPM IN DIET, Dose: 0, 3000, 6000 PPM IN DIET): inactive; negative
- carcinogen call (Species: RAT, Strain/Sex: OSBORNE-MENDEL/FEMALE, Route: ORAL, Dose: 0, 1300, 2600 PPM IN DIET, TWA, Dose: 0, 1300, 2600 PPM IN DIET, TWA, Tumor Site: Type of Lesion: PANCREAS: CARCINOMA): active; positive

Structure (SMILES): CC/C=C/C=C/C=C/C=C/C=C/OC[C@@H](O)CO
- carcinogen call (Species: MOUSE, Strain/Sex: ICR/FEMALE, Route: INTRAPERITONEAL, Dose: 0, 2.6 MG/KG IN DMSO ON D 1 AND D 3 THEN 0, 5.2 MG/KG IN DMSO ON D 7, 10, 14 AND (STUDY DURATION: 21 MO), Dose: 0, 2.6 MG/KG IN DMSO ON D 1 AND D 3 THEN 0, 5.2 MG/KG IN DMSO ON D 7, 10, 14 AND (STUDY DURATION: 21 MO)): inactive; negative
- carcinogen call (Species: MOUSE, Strain/Sex: ICR/MALE, Route: INTRAPERITONEAL, Dose: 0, 2.6 MG/KG IN DMSO ON D 1 AND D 3 THEN 0, 5.2 MG/KG IN DMSO ON D 7, 10, 14 AND (STUDY DURATION: 21 MO), Dose: 0, 2.6 MG/KG IN DMSO ON D 1 AND D 3 THEN 0, 5.2 MG/KG IN DMSO ON D 7, 10, 14 AND (STUDY DURATION: 21 MO), Tumor Site: Type of Lesion: LIVER: ADENOMA, CARCINOMA, LUNG: ADENOMA, CARCINOMA, GLANDULAR STOMACH: ADENOCARCINOMA, SUBCUTANEOUS TISSUE: FIBROSARCOM, Tumor Site: Type of Lesion: LIVER: ADENOMA, CARCINOMA, LUNG: ADENOMA, CARCINOMA, GLANDULAR STOMACH: ADENOCARCINOMA, SUBCUTANEOUS TISSUE: FIBROSARCOM): active; positive
- carcinogen call (Species: RAT, Strain/Sex: F344/MALE, Route: INTRARECTAL, Dose: 0, 5, 10 NANOMOLAR IN 0.5 ML T-E BUFFER AND METHANOL SATURATED WITH ARGON 1/WK FOR 85 WK (STUDY DURATION: 28 MO), Dose: 0, 5, 10 NANOMOLAR IN 0.5 ML T-E BUFFER AND METHANOL SATURATED WITH ARGON 1/WK FOR 85 WK (STUDY DURATION: 28 MO)): inactive; negative
- carcinogen call (Species: RAT, Strain/Sex: F344/MALE, Route: INTRARECTAL, Dose: 0, 14 MG/KG IN DMSO: EMULPHOR-SALINE 34WK FOR 9 WK THEN 2/WK FOR 12 WK AND 1/WK FOR 50 WK (STUDY DURATION: 92 WK)): inactive; negative
